Measurements taken from US8399417B2, “Food” (Ajinomoto Co., Inc., priority 2007, dated 2013).
Starred links: 1 amine or outer side, 2 acyl side, 3 side chain; linkers in the order of their positions; H or OH if unused. Non-standard residues stand in square brackets, D forms with d. No end group written: not given here. γGlu = O=C(O)[C@H](CCC(=O)[*:2])N[*:1]; Abu = CC[C@H](N)C(=O)O

Tests used:
[1] = molecular target: T1, human calcium receptor (Homo sapiens, UniProt P41180); test: Calcium receptor-activating effect: Ca ion concentration-dependent Cl ionic current in Xenopus laevis oocyte expression system; assay type: cell-based; details: for Activity (lowest concentration at which current was detected): peptide added at 1,000 to 0.1 μM to potential-clamped oocytes, Table 1
T1 construct: expressed in transfected cells; host or cells: Xenopus laevis oocytes injected with cRNA; the gene was PCR-cloned from human kidney cDNA (Clontech) into pBR322
T1 sequence (P41180 20-1078): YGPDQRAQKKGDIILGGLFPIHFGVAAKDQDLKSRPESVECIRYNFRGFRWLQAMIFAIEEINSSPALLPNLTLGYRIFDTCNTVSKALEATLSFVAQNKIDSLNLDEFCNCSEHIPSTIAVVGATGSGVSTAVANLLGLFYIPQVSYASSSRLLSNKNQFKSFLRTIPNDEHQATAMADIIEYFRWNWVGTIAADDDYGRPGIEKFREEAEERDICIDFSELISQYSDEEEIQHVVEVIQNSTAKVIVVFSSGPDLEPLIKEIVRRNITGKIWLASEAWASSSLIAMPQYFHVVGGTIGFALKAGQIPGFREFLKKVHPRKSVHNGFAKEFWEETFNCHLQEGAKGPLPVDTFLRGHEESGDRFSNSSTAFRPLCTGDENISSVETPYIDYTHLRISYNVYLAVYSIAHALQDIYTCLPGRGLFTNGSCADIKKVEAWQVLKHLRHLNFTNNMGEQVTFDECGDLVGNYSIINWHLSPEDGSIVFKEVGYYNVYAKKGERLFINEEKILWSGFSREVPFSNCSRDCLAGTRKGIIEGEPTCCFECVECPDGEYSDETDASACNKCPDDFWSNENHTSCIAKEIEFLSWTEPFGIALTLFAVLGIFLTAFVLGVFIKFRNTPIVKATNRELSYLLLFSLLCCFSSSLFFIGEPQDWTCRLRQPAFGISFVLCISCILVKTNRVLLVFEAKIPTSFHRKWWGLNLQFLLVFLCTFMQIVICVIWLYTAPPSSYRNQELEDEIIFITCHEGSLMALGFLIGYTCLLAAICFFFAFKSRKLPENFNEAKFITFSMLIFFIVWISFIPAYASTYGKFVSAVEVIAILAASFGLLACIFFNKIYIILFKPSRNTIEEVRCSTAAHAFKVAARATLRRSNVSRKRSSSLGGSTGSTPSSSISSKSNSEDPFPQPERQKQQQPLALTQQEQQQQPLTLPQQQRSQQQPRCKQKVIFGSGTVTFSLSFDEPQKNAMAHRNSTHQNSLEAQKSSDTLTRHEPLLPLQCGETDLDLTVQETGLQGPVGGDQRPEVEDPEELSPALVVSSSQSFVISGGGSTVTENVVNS
Procedure: For evaluation of the calcium receptor-activating effect, a Ca ion concentration-dependent Cl ionic current measuring method using a Xenopus laevis oocyte expression system was used. If each activator is added to Xenopus laevis oocytes expressing the calcium receptor, intracellular Ca ions increase. Then, the Ca ion concentration-dependent Cl channel opens, and the intracellular current value changes as an ionic current. By measuring the change in the intracellular current value, whether the calcium receptor-activating effect is present or not can be determined.
Specifically, the abdomen of Xenopus laevis was opened, and an egg batch was taken out and then treated with a 1% collagenase solution at 20° C. for 2 hours to obtain individual oocytes. Into the oocytes, 50 nl of 1 μg/μl receptor cRNA or 50 nl of sterilized water per oocyte were injected by using a micro glass capillary, and the oocytes were cultured at 18° C. for 2 to 3 days. For the culture, a solution obtained by adding 2 mM pyruvic acid, 10 U/ml penicillin, and 10 μg/ml streptomycin to the solution in Reference Example 2 was used. After the culture, a test solution was added to the oocytes injected with cRNA or sterilized water. Electrophysiological measurement was performed by using an amplifier Geneclamp 500 (manufactured by Axon) and recording software AxoScope 9.0 (manufactured by Axon). The oocytes were membrane potential-clamped at −70 mV by the double electrode potential clamp method, and the intracellular current via the Ca ion concentration-dependent Cl ion was measured. The maximum value of the intracellular current was defined as the response current value.
The calcium receptor-activating effect of L-amino acids was evaluated by using the method described in Reference Example 6. That is, oocytes injected with cRNA of the calcium receptor or sterilized water were prepared, and membrane potential-clamped at −70 mV by the double electrode potential clamp method. To the potential-clamped oocytes, alanine (10 mM), arginine (10 mM), asparagine (10 mM), aspartic acid (10 mM), cysteine (10 mM), glutamine (10 mM), glutamic acid (10 mM), glycine (10 mM), histidine (10 mM), isoleucine (10 mM), leucine (10 mM), lysine (10 mM), methionine (10 mM), phenylalanine (10 mM), proline (10 mM), serine (10 mM), threonine (10 mM), tryptophan (10 mM), tyrosine (10 mM), valine (10 mM), ornithine (10 mM), taurine (10 mM), or hydroxyproline (10 mM) was added, and Ca ion concentration-dependent Cl response current was measured. […] 25, 2000, 97(9): 4814-9.
The calcium receptor-activating effect of D-cysteine was evaluated by using the method described in Reference Example 6. That is, oocytes injected with cRNA of the calcium receptor or sterilized water were prepared, and membrane potential-clamped at −70 mV by the double electrode potential clamp method. To the potential-clamped oocytes, D-cysteine (10 mM), L-cysteine (10 mM), D-tryptophan (10 mM), or L-tryptophan (10 mM) was added, and Ca ion concentration-dependent Cl response current was measured.
The calcium receptor-activating effect of a peptide was evaluated by using the method described in Reference Example 6. That is, oocytes injected with cRNA of the calcium receptor or sterilized water were prepared, and membrane potential-clamped at −70 mV by the double electrode potential clamp method.
The calcium receptor-activating effects of peptides were evaluated in the same manner as that of Reference Example 10. Each of the peptides shown in Table 1 was added to potential-clamped oocytes at 1,000 μM, 300 μM, 100 μM, 30 μM, 10 μM, 3 μM, 1 μM, 0.3 μM, and 0.1 μM, and Ca ion concentration-dependent Cl response current was measured.

[2] = Fat-like richness and smoothness imparted to low-fat yogurt, quantitative sensory evaluation test; assay type: in vivo, human; details: Table 10
Procedure: The quantitative sensory evaluation test was performed as follows. Each of γ-Glu-Val-Gly and cinacalcet was mixed with commercially-available low-fat yogurt (non-fat milk solids content: 10.0%, milk fat content: 1.0%) at a concentration of 0.00001 to 1 g/dl, and the intensity of imparting fat-like richness was measured.
It should be noted that after each sample was dissolved in low-fat yogurt, and a sample, the pH of which was lowered, was adjusted with NaOH so that the pH might be ±0.2 with respect to the pH of the […] free of a sample.
The sensory score for fat-like richness and smoothness was defined as follows: control (free of sample): 0 point; strong: 3 points; and very strong: 5 points. Then, the test was performed with n=12.

Molecule | calcium receptor-activating effect (Cl response current) ([1]; peptide 50 μM, FIG. 4) | Fat-like richness ([2]; 0.001 g/dl in low-fat yogurt (milk fat 1.0%), n=12, control 0, strong 3, very strong 5 points) | Taste profile ([2]; 0.001 g/dl in low-fat yogurt) | Smoothness ([2]; 0.001 g/dl in low-fat yogurt, n=12, control 0, strong 3, very strong 5 points) | Activity (lowest concentration at which current was detected) [1]
N[C@@H](CCC(=O)N[C@@H](CS)C(=O)NCC(=O)O)C(=O)O [γ-Glu-Cys-Gly, reference compound] | definite calcium receptor-activating effect |  |  |  | 
[γGlu]-Val-Gly |  | 4.5 points | Taste is enhanced in middle | 4.0 points | 0.1 µM
[γGlu]-[Abu]-Gly |  |  |  |  | 3 µM
